What was measured:
MAPK/APK2 = assay: Immunoblotting of hypoxia-induced MAPK/APK2 phosphorylation in U87 cells; assay type: cell-based, human; settings: pretreated with SB203580 10 μM for 30 min, hypoxia 6 h
Description: (§1) FIGS. 10A-I. Mitochondrial Translocation of PGK1 is depended on ERK1/2-mediated PGK1 Phosphorylation. FIG. 10A. […] Immunoblotting analyses were performed with the indicated antibodies. FIG. 10B. […] Immunoblotting analyses were performed with the indicated antibodies. FIG. 10C. […] Immunofluorescence analyses were carried out using an anti-PGK1 antibody, MitoTracker, and DAPI. FIG. 10D. U87 cells stably transfected with a vector or Flag-ERK2 K52R were treated with or without hypoxia for 6 h. Mitochondria fractions and total cell lysates were prepared. FIG. 10E. U87 cells were stably transfected with or without vectors expressing HA-MEK1 Q56P with the indicated Flag-ERK2 proteins. Mitochondria fractions and total cell lysates were prepared. Immunoblotting analyses were performed with the indicated antibodies. FIG. 10F. U87 cells were treated with or without hypoxia for 6 h. […] FIG. 10G. Immobilized GST or GST-PGK1 protein was incubated with purified recombinant His-ERK2. Immunoblotting analyses were performed with the indicated antibodies. FIG. 10H. […] Immunoblotting analyses were performed with the indicated antibodies. FIG. 10I. […] Immunoblotting analyses were performed with the indicated antibodies.

U87 cells = assay: Cell proliferation assay under hypoxia; assay type: cell-based, human; settings: PGK1-depleted U87 cells reconstituted with WT PGK1 or PGK1 R39/K41A, DTT 1 mM, hypoxia 4 days
Description: FIGS. 17A-H. Mitochondrial PGK1-Dependent PDHK1 Phosphorylation Promotes Cell Proliferation and Brain Tumorigenesis. FIGS. 17A-C. Data represent the means ±SD of three independent experiments. FIG. 17A. A total of 2×10^5 U251 cells with or without PGK1 shRNA (left panel) or PDHK1 shRNA (right panel) expression and with or without reconstituted expression of their WT counterparts and the indicated mutants were plated for 4 days under hypoxic conditions. The cells were then collected and counted. FIG. 17B. A total of 2×10^5 endogenous PGK1-depleted U87 cells with reconstituted expression of WT rPGK1 or rPGK1 R39/K41A were plated and treated with or without DTT (1 mM) during hypoxia for 4 days. The cells were then collected and counted. FIG. 17C. Mitochondria fractions and total cell lysates from endogenous PGK1-depleted U87/EGFRvIII cells with reconstituted expression of WT rPGK1 or rPGK1 S203A were prepared. […] The indicated U87/EGFRvIII cells (2×10^5) were plated for 3 days and were counted (right panel). […] The cells were then collected and counted. #p<0.05. […] Tumor volume was calculated using length a and width b: V=ab^2/2. […] Ki67-positive cells were quantified in 10 microscope fields. […] Apoptotic cells were quantified in 10 microscope fields.
A total of […] cells were plated and counted at 4 days after seeding in DMEM with 10% dialyzed bovine calf serum during hypoxia. […]

ERK1/2 = assay: Immunoblotting of hypoxia-induced ERK1/2 phosphorylation/activation in U87 cells; assay type: cell-based, human
Description: as §1
FIGS. 11A-J. ERK1/2-mediated PGK1 S203 Phosphorylation Is Required for Mitochondrial Translocation of PGK1. […] The images were quantified by scanning densitometry. […]

PGK1 [1] = assay: Hypoxia-induced mitochondrial translocation of PGK1 (mitochondrial fractionation, immunoblotting, immunofluorescence); assay type: cell-based, human
Description: (§2) FIG. 1B. […] FIG. 1C. […] Arrows indicate representative staining of mitochondrial PGK1. Dashed circles indicate mitochondria. FIG. 1D. […] Tubulin was used as a cytosolic protein marker. FIG. 1E. […] Mitochondria fractions and total cell lysates were prepared. FIG. 1F. […] Mitochondria fractions and total cell lysates were prepared. FIG. 1G. […] FIG. 1H. […] FIG. 1I. […] Mitochondrial fractions and total cell lysates were prepared.
FIGS. 9A-E. Hypoxia Induces Mitochondrial Translocation of PGK1. FIG. 9A. Total cell lysate, cytosolic, and mitochondrial fractions were prepared from U87 and U251 cells stimulated with or without hypoxia for 6 h. Immunoblotting analyses were performed with the indicated antibodies. Hypoxia-induced HIF1α expression (left panel) was a control for hypoxic stimulation. WCL: whole-cell lysate; Cyto: cytosol; Mito: mitochondria. WB, Western blot. FIG. 9B. Cytosolic and mitochondrial fractions were prepared from U87 and U251 cells stimulated with hypoxia for 6 h. Immunoblotting analyses of equal percentages of cytosolic and mitochondrial fraction were performed with the indicated antibodies. WCL: whole-cell lysate; Cyto: cytosol; Mito: mitochondria. Immunoblotting analyses were performed with the indicated antibodies. The images were quantified by scanning densitometry. FIG. 9C. U87 cells transfected with HIF1α siRNA or a scrambled siRNA before hypoxia stimulation for 6 h. […]

PGK1 S203 = assay: Hypoxia-induced PGK1 S203 phosphorylation in U87 cells (streptavidin pull-down / immunoblotting); assay type: cell-based, human
Description: as §2
FIGS. 11A-J. ERK1/2-mediated PGK1 S203 Phosphorylation Is Required for Mitochondrial Translocation of PGK1. Immunofluorescence, immunoprecipitation, and immunoblotting analyses were performed with the indicated antibodies. FIG. 11A. U87 cells stimulated with or without hypoxia for 6 h were stained with the indicated antibody, MitoTracker, and DAPI. FIG. 11B. […] FIG. 11C. U87 cells were stably transfected with or without vectors expressing HA-MEK1 Q56P with the indicated Flag-ERK2 proteins. Total cell lysates were prepared. FIG. 11D. […] FIG. 11E. Anti-PGK1 pS203 antibody was used to deplete the phosphorylated PGK1 from total cell lysates prepared from U87 cells treated with or without hypoxia for 6 h. The images were quantified by scanning densitometry. […] FIG. 11H. […] FIG. 11I. […] Mitochondria fractions and total cell lysates were prepared. FIG. 11J.
Streptavidin or glutathione agarose beads were incubated with cell lysate (1 mg/ml) or purified protein for 12 h. […]

PGK1 [2] = settings: U87/EGFR cells, U0126 20 μM for 30 min, EGF 100 ng/ml 6 h
Description: EGFR-overxpressed U87 (U87/EGFR) cells pretreated with U0126 (20 μM) for 30 min were stimulated with or without EGF (100 ng/ml) for 6 h. Mitochondria fractions and total cell lysates were prepared.
U87, U87/EGFR, and U251 human GBM cells, BxPC-3 human pancreatic cancer cells, CHL1 human melanoma cells, and mouse embryo fibroblast (MEF) cells were maintained in Dulbecco's modified Eagle's medium (DMEM) supplemented with 10% dialyzed bovine calf serum without pyruvate (HyClone, Logan, Utah). […] For EGF treatments, cell cultures were made quiescent by growing them to confluence, and the medium was replaced with fresh medium containing 0.5% serum for 1 day. EGF at a final concentration of 100 ng/ml was used for cell stimulation.
Mitochondrial and cytosolic fractions were isolated using a mitochondria/cytosol fractionation kit from BioVision (Mountain View, Calif.). Mitochondrial proteins and cytosolic proteins were used in immunoblotting analyses.

PIN1 and PGK1 = settings: U87 cells, U0126 20 μM for 30 min before hypoxia 6 h
Description: FIGS. 2A-F and H-I. Immunoblotting and immunoprecipitation analyses were carried out using antibodies against the indicated proteins. FIG. 2A U87 cells were pretreated with or without U0126 (20 μM) for 30 min before hypoxic stimulation for 6 h. […] U87 cells were treated with or without hypoxic stimulation for 6 h. A GST pull-down assay with the indicted GST-proteins was performed. […] U87 cells expressing the indicated PGK1 proteins were treated with or without hypoxic stimulation for 6 h.

EGFR = assay: Immunoblotting of hypoxia-induced EGFR phosphorylation in U87 cells; assay type: cell-based, human; settings: AG1478 100 nM for 30 min before hypoxia 6 h
PGK1 [3] = assay: Determining KM of PGK1 (PGK1-dependent PDHK phosphorylation, Lineweaver-Burke plot); assay type: biochemical, human; settings: purified recombinant WT PGK1, Sumo-PDHK1, 37° C., means ±SD of three experiments; read-out: Km of ATP for PGK1-dependent PDHK phosphorylation
Description: FIGS. 14A-P. Mitochondrial PGK1 Phosphorylates PDHK1 at T338. FIG. 14A. […] Immunoblotting analyses were performed with the indicated antibodies. FIG. 14B. U87 cells (left panel) or U87/EGFR (right panel) cells expressing PGK1 shRNA with or without reconstituted expression of WT rPGK1 and the indicated mutants were stimulated with or without hypoxia for 6 h (left panel) or EGF (100 ng/ml) (right panel) for 6 h. These cells were incubated with [1-^14C]-pyruvate for 2 h. [1-^14C]CO2 production rates were measured. FIG. 14C. U87 cells expressing SFB-PDHK1, SFB-PDHK2, SFB-PDHK3, or SFB-PDHK4 were stimulated with or without hypoxia for 6 h. Mitochondrial fractions of these cells were prepared. […] ATP concentrations in mitoplast isolated from U87 or U251 cells treated with or without hypoxia for 6 h were measured. […] The glycolytic activities of bacterially purified WT PGK1, PGK1 T378P, PGK1 S203A, and PGK1 R39/K41A were measured. […]
Purified recombinant WT PGK1 (0.2 ng) was incubated in 100 μl of reaction buffer (50 mM Tris-HCl [pH 7.5], 600 ng/μl Sumo-PDHK1, 5 mM MgSO4, 1 mM Na3VO4, 1 mM DTT, 1.8 mM phosphorenolpyruvate, 7 units pyruvate kinase, 10 units lactic dehydrogenase, 0.01 mM NADH) with indicated ATP concentration at 37° C. in 96-well plate and were read by multidetection microplate readers (BMG LABTECH, Cary, N.C.) at 339 nm in kinetic mode for 5 min. […]

[4] = U87 cells, AG1478 100 nM for 30 min before hypoxia 6 h

C[S+]([O-])c1ccc(-c2nc(-c3ccncc3)c(-c3ccc(F)cc3)[nH]2)cc1 (stereo not drawn) [SB203580]
hypoxia-induced phosphorylation of MAPK/APK2 (MAPK/APK2): blocked

O[C@@H](CS)[C@@H](O)CS [DTT]
hypoxia-induced growth suppression (U87 cells): partially rescued

N#CC(=C(/N)Sc1ccccc1N)/C(C#N)=C(\N)Sc1ccccc1N [U0126]
hypoxia-induced phosphorylation of ERK1/2 (ERK1/2; pretreated with U0126 20 μM for 30 min, hypoxia 6 h): blocked
hypoxia-induced mitochondrial translocation of PGK1 (PGK1 [1]; U87 and U251 cells, U0126 20 μM for 30 min before hypoxia 6 h): notably reduced
hypoxia-induced PGK1 S203 phosphorylation (PGK1 S203; U87 cells expressing SFB-tagged PGK1, U0126 20 μM or SP600125 25 μM for 30 min before hypoxia 6 h): abolished
EGF-induced mitochondrial translocation of PGK1 (PGK1 [2]): blocked
hypoxia-increased interaction between endogenous PIN1 and PGK1 (PIN1 and PGK1): blocked

COc1cc2ncnc(Nc3cccc(Cl)c3)c2cc1OC [AG1478]
hypoxia-induced ERK activation (ERK1/2; AG1478 100 nM for 30 min before hypoxia 6 h): blocked
hypoxia-induced mitochondrial translocation of PGK1 (PGK1 [1]; [4]): blocked
hypoxia-induced phosphorylation of PGK1 (PGK1 S203; [4]): blocked
hypoxia-induced EGFR phosphorylation (EGFR): blocked

Nc1ncnc2c1ncn2[C@@H]1O[C@H](COP(=O)(O)OP(=O)(O)OP(=O)(O)O)[C@@H](O)[C@H]1O [ATP, adenosine triphosphate]
Km (PGK1 [3]): 560 ± 53 µM
